Measurements published in patent US6395896B2, “Pyridazine derivatives, manufacturing method and related composition” (Shiseido Co., Ltd., priority 1999, dated 2002).

Test: Colorant stabilization effect (photostabilizer, sunlight exposure)
Design: key to Sunlight exposure (80 MJ) Appearance: A: No change; B: No almost change; C: Yes change; key to Sunlight exposure (80 MJ) ΔE: ΔE color difference (Lab) vs. color before sunlight exposure
Procedure: First of all, the photostabilization effect and appearance change of a composition in each pigment were studied by the following evaluation formulation.
Each test sample was prepared. Observation of appearance change (visual evaluation) and measurement of color difference (ΔE) were carried out in samples exposed to sunlight exposure (around 80 MJ).
Color difference was measured by Lab coordinate system with spectrophotometer. Color difference was calculated on the basis of the color before sunlight exposure. Namely, from measured value (L1,a1,b1) before sunlight exposure, color difference (ΔE) was calculated by following formula.

[1] = Blue No. 1 0.00001 wt %, photostabilizer 0.05 wt %
[2] = Blue No. 1 0.00001 wt %, photostabilizer 0.1 wt %
[3] = Blue No. 1 0.00001 wt %, photostabilizer 0.3 wt %
[4] = Blue No. 1 0.0001 wt %, photostabilizer 0.03 wt %
[5] = Blue No. 1 0.0001 wt %, photostabilizer 0.05 wt %
[6] = Blue No. 1 0.0001 wt %, photostabilizer 0.1 wt %
[7] = Green No. 3 0.00001 wt %, photostabilizer 0.03 wt %
[8] = Green No. 3 0.00001 wt %, photostabilizer 0.1 wt %
[9] = Green No. 3 0.00001 wt %, photostabilizer 0.3 wt %
[10] = Green No. 3 0.0001 wt %, photostabilizer 0.02 wt %
[11] = Green No. 3 0.0001 wt %, photostabilizer 0.05 wt %
[12] = Green No. 3 0.0001 wt %, photostabilizer 0.1 wt %
[13] = Red No. 106 0.00001 wt % + Yellow No. 5 0.0001 wt %, photostabilizer 0.03 wt %
[14] = Red No. 106 0.00001 wt % + Yellow No. 5 0.0001 wt %, photostabilizer 0.05 wt %
[15] = Red No. 106 0.00001 wt % + Yellow No. 5 0.0001 wt %, photostabilizer 0.3 wt %
[16] = Red No. 106 0.00001 wt % + Yellow No. 203 0.0001 wt %, photostabilizer 0.05 wt %
[17] = Red No. 106 0.00001 wt % + Yellow No. 203 0.0001 wt %, photostabilizer 0.1 wt %
[18] = Red No. 106 0.00001 wt % + Yellow No. 203 0.0001 wt %, photostabilizer 0.3 wt %
[19] = Red No. 106 0.00001 wt %, photostabilizer 0.05 wt %
[20] = Red No. 106 0.00001 wt %, photostabilizer 0.1 wt %
[21] = Red No. 106 0.00001 wt %, photostabilizer 0.3 wt %
[22] = Red No. 106 0.0001 wt %, photostabilizer 0.03 wt %
[23] = Red No. 106 0.0001 wt %, photostabilizer 0.05 wt %
[24] = Red No. 106 0.0001 wt %, photostabilizer 0.1 wt %
[25] = Red No. 213 0.00001 wt % + Blue No. 1 0.00001 wt %, photostabilizer 0.03 wt %
[26] = Red No. 213 0.00001 wt % + Blue No. 1 0.00001 wt %, photostabilizer 0.05 wt %
[27] = Red No. 213 0.00001 wt % + Blue No. 1 0.00001 wt %, photostabilizer 0.1 wt %
[28] = Red No. 213 0.00001 wt %, photostabilizer 0.03 wt %
[29] = Red No. 213 0.00001 wt %, photostabilizer 0.1 wt %
[30] = Red No. 213 0.00001 wt %, photostabilizer 0.3 wt %
[31] = Red No. 213 0.0001 wt %, photostabilizer 0.03 wt %
[32] = Red No. 213 0.0001 wt %, photostabilizer 0.05 wt %
[33] = Red No. 213 0.0001 wt %, photostabilizer 0.1 wt %
[34] = Red No. 227 0.00001 wt %, photostabilizer 0.05 wt %
[35] = Red No. 227 0.00001 wt %, photostabilizer 0.1 wt %
[36] = Red No. 227 0.00001 wt %, photostabilizer 0.3 wt %

Oc1nncc(N2CCOCC2)c1N1CCOCC1 [4,5-Dimorpholino-3-hydroxypyridazine]
Sunlight exposure (80 MJ) Appearance [1]: A | Sunlight exposure (80 MJ) ΔE [1]: 1.00 | Sunlight exposure (80 MJ) Appearance [2]: A | Sunlight exposure (80 MJ) ΔE [2]: 0.62 | Sunlight exposure (80 MJ) Appearance [3]: A | Sunlight exposure (80 MJ) ΔE [3]: 0.25 | Sunlight exposure (80 MJ) Appearance [4]: A | Sunlight exposure (80 MJ) ΔE [4]: 1.25 | Sunlight exposure (80 MJ) Appearance [5]: A | Sunlight exposure (80 MJ) ΔE [5]: 1.11 | Sunlight exposure (80 MJ) Appearance [6]: A | Sunlight exposure (80 MJ) ΔE [6]: 0.70 | Sunlight exposure (80 MJ) Appearance [7]: A | Sunlight exposure (80 MJ) ΔE [7]: 0.56 | Sunlight exposure (80 MJ) Appearance [8]: A | Sunlight exposure (80 MJ) ΔE [8]: 0.08 | Sunlight exposure (80 MJ) Appearance [9]: A | Sunlight exposure (80 MJ) ΔE [9]: 0.02 | Sunlight exposure (80 MJ) Appearance [10]: A | Sunlight exposure (80 MJ) ΔE [10]: 0.75 | Sunlight exposure (80 MJ) Appearance [11]: A | Sunlight exposure (80 MJ) ΔE [11]: 0.31 | Sunlight exposure (80 MJ) Appearance [12]: A | Sunlight exposure (80 MJ) ΔE [12]: 0.06 | Sunlight exposure (80 MJ) Appearance [13]: A | Sunlight exposure (80 MJ) ΔE [13]: 0.97 | Sunlight exposure (80 MJ) Appearance [14]: A | Sunlight exposure (80 MJ) ΔE [14]: 0.55 | Sunlight exposure (80 MJ) Appearance [15]: A | Sunlight exposure (80 MJ) ΔE [15]: 0.12 | Sunlight exposure (80 MJ) Appearance [16]: A | Sunlight exposure (80 MJ) ΔE [16]: 0.77 | Sunlight exposure (80 MJ) Appearance [17]: A | Sunlight exposure (80 MJ) ΔE [17]: 0.25 | Sunlight exposure (80 MJ) Appearance [18]: A | Sunlight exposure (80 MJ) ΔE [18]: 0.11 | Sunlight exposure (80 MJ) Appearance [19]: A | Sunlight exposure (80 MJ) ΔE [19]: 1.01 | Sunlight exposure (80 MJ) Appearance [20]: A | Sunlight exposure (80 MJ) ΔE [20]: 0.55 | Sunlight exposure (80 MJ) Appearance [21]: A | Sunlight exposure (80 MJ) ΔE [21]: 0.12 | Sunlight exposure (80 MJ) Appearance [22]: A | Sunlight exposure (80 MJ) ΔE [22]: 0.95 | Sunlight exposure (80 MJ) Appearance [23]: A | Sunlight exposure (80 MJ) ΔE [23]: 0.82 | Sunlight exposure (80 MJ) Appearance [24]: A | Sunlight exposure (80 MJ) ΔE [24]: 0.43 | Sunlight exposure (80 MJ) Appearance [25]: A | Sunlight exposure (80 MJ) ΔE [25]: 1.21 | Sunlight exposure (80 MJ) Appearance [26]: A | Sunlight exposure (80 MJ) ΔE [26]: 0.97 | Sunlight exposure (80 MJ) Appearance [27]: A | Sunlight exposure (80 MJ) ΔE [27]: 0.73 | Sunlight exposure (80 MJ) Appearance [28]: B | Sunlight exposure (80 MJ) ΔE [28]: 1.24 | Sunlight exposure (80 MJ) Appearance [29]: A | Sunlight exposure (80 MJ) ΔE [29]: 0.45 | Sunlight exposure (80 MJ) Appearance [30]: A | Sunlight exposure (80 MJ) ΔE [30]: 0.12 | Sunlight exposure (80 MJ) Appearance [31]: B | Sunlight exposure (80 MJ) ΔE [31]: 1.11 | Sunlight exposure (80 MJ) Appearance [32]: A | Sunlight exposure (80 MJ) ΔE [32]: 0.78 | Sunlight exposure (80 MJ) Appearance [33]: A | Sunlight exposure (80 MJ) ΔE [33]: 0.32 | Sunlight exposure (80 MJ) Appearance [34]: A | Sunlight exposure (80 MJ) ΔE [34]: 0.69 | Sunlight exposure (80 MJ) Appearance [35]: A | Sunlight exposure (80 MJ) ΔE [35]: 0.32 | Sunlight exposure (80 MJ) Appearance [36]: A | Sunlight exposure (80 MJ) ΔE [36]: 0.11 | Sunlight exposure (80 MJ) Appearance (Red No. 227 0.0001 wt % + Yellow No. 5 0.0001 wt %, photostabilizer 0.03 wt %): A
